The values below come from patent US20230212216A1, “SYNTHESIS OF LACTONE DERIVATIVES AND THEIR USE IN THE MODIFICATION OF PROTEINS” (priority 2019, published 2023).

Read-outs that look alike come from different tables or passages of the source. Where no end group is shown, it is not given here.

In data set [1] the test system is N-terminally gluconoyl-labelled Beltide-1 derivative peptide PP6. The data set can be described thus: Boron-containing reagents to modulate reversibility (heat-accelerated deacylation). It counts as physicochemical. As to conditions: 5 mM additive, 50 μM peptide; for Remaining gluconoyl-label, pH 7.5 after 15 h at 50° C.: 50 mM HEPES/NaOH buffer; for Remaining gluconoyl-label, pH 6.8 after 15 h at 50° C.: 50 mM phosphate/KOH buffer. Here is the method: To explore the reversibility modulating effect of various boron-containing molecules, a small library of reagents was tested at pH 7.5 (50 mM HEPES/NaOH buffer) and pH 6.8 (50 mM phosphate/KOH buffer).
Reaction supplemented with 5 mM of additive; calculated as the ratio of the TIC for the labelled divided by the sum of TICs of both labelled and unlabeled species.

Data set [2] concerns GDL acylated G-H6-Beltide-1. Description: Effect of copper ions on reversibility of acylation. It counts as physicochemical. As to conditions: various CuSO4 concentrations, pH 7.5, 37° C. The method, then: FIG. 3: Reversibility of GDL:G-H6-Beltide-1 in the presence of various CuSO4 and EDTA concentrations at pH 7.5. GDL acylated G-H6-Beltide-1 was produced as before, extra GDL was removed by C18 reverse phase purification and the acylated peptide (20 μM) was stored in 50 mM HEPES (NaOH) buffer supplemented with various concentrations of CuSO4 and EDTA at 37° C. Change in acylation status was monitored by MALDI-TOF MS TIC and is reported as the relative m/z ratio of the acylated (m1) and non-acylated species (m2) ([m1/z/(m1/z+m2/z)]*100%).
1 mM G-H6-Beltide-1 (˜1 mg of peptide) was acylated with 100 mM GDL in 200 mM HEPES (NaOH) pH 7.5 for 1 h at room temperature in a total volume of ˜300 μL. Upon addition of buffer to peptide but before addition of GDL, precipitation was clearly observed. This precipitation may be due to the theoretical pI of G-H6-Beltide-1 being close to pH 7.5, or because G-H6-Beltide-1 is a Beltide-1 variant. Beltide-1 is known to form nanodiscs in solution upon contact with membrane proteins or lipid components (Midtgaard et al. 2014; Martos-Maldonado et al. 2018). GDL was added to 100 mM from a freshly prepared 1 M stock solution. The solution remained cloudy. […] The acylated peptide was analyzed by MALDI-MS and initial acylation extent was estimated to be ˜96%, stored at −20° C. until further usage. […]

The test system of data set [3] is GDL-acylated GSS-H6-Beltide-1 peptide. The data set can be described thus: Effect of nickel ions on reversibility of acylation. It counts as physicochemical. Conditions: 0.01-1 mM NiSO4, pH 7.5, 37° C., up to day 7. Here is the method: GSS-H6-Beltide-1 peptide was GDL-acylated and extra GDL was removed via C18 SepPack chromatography. GDL-acylated peptide was dissolved in 100 mM HEPES (NaOH), pH 7.5, 10% ACN (v/v) to a final concentration of ˜100 μM and aliquoted into 0.5 mL LoBind (Eppendorf) microcentrifuge tubes. NiSO4 was supplemented to 0, 0.01, 0.1, and 1 mM final concentration from a 100 mM NiSO4 stock in H2O. A control sample was supplemented with a pre-mixed solution of NiSO4 and EDTA, to give a final concentration of 1 mM NiSO4 and 5 mM EDTA [stock solution 10 mM NiSO4 and 50 mM EDTA (NaOH neutralized)]. The samples (50 μL volume each) were kept in a water bath at 37° C. Aliquots of 2 μL were taken on day 1, 3, 5, and 7, mixed with 10 μL of 5% acetic acid, purified by C18 ZipTip chromatography and analyzed by MALDI-TOF-MS instrumentation.

The test system is the same in data set [4]. Description: Effect of zinc ions on reversibility of acylation. It counts as physicochemical. Conditions: day 7. The method, then:
GSS-H6-Beltide-1 peptide was GDL-acylated and extra GDL was removed via C18 SepPack chromatography. GDL:peptide was dissolved in 100 mM HEPES (NaOH), pH 7.5 with or without ZnSO4 (0.2 mM and 2 mM) to a final concentration of ˜100 μM. ACN was added to 10% v/v to reduce possible nanodisc formation and precipitation of the peptide to the plastic microcentrifuge wall. The reaction mixtures (100 μL volume each) were kept in a water bath at 37° C. Aliquots of 2 μL were taken at day 3, mixed with 10 μL of 5% acetic acid, purified by C18 ZipTip chromatography and analyzed by MALDI-TOF-MS instrumentation. […] The remaining reaction mixture (80 μL) was acidified by adding 50% (v/v) acetic acid. The amount of acetic acid to be added was calculated as 20% of the remaining reaction volume [final concentration 7.57% acetic acid v/v]. Likewise, 10% reaction volume of 100% acetonitrile were added (final concentration acetonitrile ˜16.6% v/v) and the reaction was mixed by quick vortexing. Of this mixture, 15 μL aliquots were processed via C18 ZipTip chromatography and analyzed by MALDI-TOF-MS instrumentation. We speculate that the peptide had bound to the microcentrifuge wall and assumed that the precipitation affected both acylated and non-acylated species equally.

Data set [5] concerns 6-AGDL acylated GSS-H6-Beltide-1. Here is the method:
The volume was then made up to 15 mL to give a 1 M stock solution.
pH 6 buffer was made by preparing a 1 M stock solution of citric acid monohydrate and by making a solution of 1 M sodium citrate dihydrate. The two solutions were mixed to give a 1 M stock solution of pH 6.
pH 7.5 buffer was made by mixing a 1 M stock solution of potassium phosphate monobasic with 1 M solution of potassium phosphate dibasic to give a pH of 7.5.
pH 8.8 buffer was prepared by titrating 1 M solution of acetic acid with ammonium solution to give pH 8.8.
20 μM 6-AGDL modified peptide was stored in 100 μL aliquots in 200 mM buffer as indicated. The vials (triplicates) were incubated in a 37° C. water bath throughout the experiment and were retrieved for sample acquisition for <30 mins at room temperature before they were returned to the water bath.
10 μL of subsamples for pH 4, 6 and 8.8 were acidified with 5 μL of 20% (v/v) acetic acid and subjected to C18 ZipTip purification. Samples were analyzed in positive reflectron mode with MALDI-TOF MS.
pH 7.5 samples were stored in the presence of 10% ACN (v/v) to counteract precipitation. For pH 7.5 samples, 15 μL aliquots were taken for each time point and desalted using 0.1% TFA-70% ACN/0.1% TFA C18 Zip-Tip procedure. 0.5 μL of the Eluate was mixed 1:1 with C1CCA matrix mixture and spotted onto a MALDI steel target prior to detection in reflector positive mode MALDI-TOF MS.

A further data set relates to serine protease trypsin. As to conditions: 50 mM boric acid.
Data set [6] in a line: Reversibility of 6-AGDL acylated G-H6 and non-His-tagged peptides. It counts as physicochemical. As to conditions: 6-AGDL acylated peptide, 14 days at room temperature, 1M HEPES pH 7.5. The method, then: 100 μM of G-H6-Beltide-1, GGKWSKR-Beltide-1 and GGTYSDH-Beltide-1 peptides were reacted at 4° C. with 6-AGDL in 1M HEPES, pH 7.5 by sequentially adding 100 mM 6-AGDL twice in 3 h intervals. Extra 6-AGDL was not removed, and the samples were stored at room temperature throughout the experiment.
2 μL from each sample were taken at each time point except for day 14. 10 μL of 2% acetic acid was added to each timepoint sample and the mixtures were desalted by C18 ZipTip chromatography. Eluate was analyzed by MALDI-TOF MS as before.
At day 14 the remaining samples underwent recovery procedure where all of the reaction mixtures were acidified by adding 20% of reaction volume of 50% (v/v) acetic acid [final concentration 7.57% acetic acid (v/v)] and then adding 10% reaction volume of 100% acetonitrile [final concentration ACN […]]. Of this mixture, 15 μL aliquots were taken, cleaned by ZipTip C18 Chromatography and analyzed by MALDI-TOF-MS instrumentation.

For data set [7], the system named is non-activated HEK-produced RBD. Description: Endpoint anti-RBD ELISA of sera of immunized mice. The arrangement: species or system SARS-CoV-2. Conditions: in vivo. A general note: In an ELISA, binding on a coated surface is turned into a signal by an enzyme label.
In another data set the test system is Pseudovirus. The data set can be described thus: Pseudovirion neutralization assay. It counts as cell-based, SARS-CoV-2. Conditions: mice sera day 42, after a total of 3 immunizations. The method, then:
The conjugate material was then used to immunize mice at 10 μg per dose formulated in AddaVax (Invivogen) according to the manufacturer on Day 0. Boosts with the same dose and formulation were performed on day 14 and day 28. Sera samples were taken before each immunization for immunological studies. Animals were sacrificed on day 42.
Pseudovirion neutralization assays were performed with samples obtained at day 42 according to standard procedures known in the art.

Consider `O=Cc1ccccc1B(O)O` [2-formylphenylboronic acid], for which, in data set [1], the “Remaining gluconoyl-label, pH 7.5 after 15 h at 50° C.” value is approximately 99% and the “Remaining gluconoyl-label, pH 6.8 after 15 h at 50° C.” value is approximately 95%. On to `O=Cc1ccc(B(O)O)cc1` [4-formylphenylboronic acid], for which, in [1], the “Remaining gluconoyl-label, pH 7.5 after 15 h at 50° C.” value was approximately 95% and the “Remaining gluconoyl-label, pH 6.8 after 15 h at 50° C.” value is given as approximately 46%. For the compound `O=S(=O)([O-])[O-].[Cu+2]` [CuSO4], the rate of reversibility entry in [2] is reported as “decreasing rate of reversibility as a function of increasing CuSO4 concentration”. Regarding `O=S(=O)([O-])[O-].[Ni+2]` [NiSO4], the reversibility of acylation result in data set [3] is recorded as “seemingly abolished reversibility”. In the case of `O=S(=O)([O-])[O-].[Zn+2]` [ZnSO4], the remaining gluconoylation in data set [4] (0.2 mM ZnSO4, pH 7.5, 37° C.) is reported as approximately 80%; in [4] (2 mM ZnSO4, pH 7.5, 37° C.), approximately 75%. As to `OB(O)O` [boric acid, Boric acid], the reversibility of acylation result in data set [5] (>50 mM boric acid, pH 8.8, 7 days, 37° C.) is “effectively inhibited”; in [5] (pH 4, 37° C.), “no effect was observed”; in data set [5] (pH 6, 37° C.) it was “modulated the reversibility”. In data set [1], the “Remaining gluconoyl-label, pH 7.5 after 15 h at 50° C.” value is approximately 69%. Further, in [1], the “Remaining gluconoyl-label, pH 6.8 after 15 h at 50° C.” value is approximately 8%. For the same compound, the inhibition of trypsin entry with serine protease trypsin is on record as “did not measurably inhibit”. On to `CB(O)O` [methylboronic acid], for which, in [1], the “Remaining gluconoyl-label, pH 7.5 after 15 h at 50° C.” value is on record as approximately 59% and the “Remaining gluconoyl-label, pH 6.8 after 15 h at 50° C.” value is on record as approximately 6%. As for `OB(O)c1ccccc1` [phenylboronic acid], in data set [1], the “Remaining gluconoyl-label, pH 7.5 after 15 h at 50° C.” value was approximately 83% and the “Remaining gluconoyl-label, pH 6.8 after 15 h at 50° C.” value is given as approximately 31%. For `OB1OCc2cc(F)ccc21` [tavaborole, 5-Fluoro-1,3-dihydro-1-hydroxy-2,1-benzoxaborole], in that order: approximately 87% and approximately 87.9%. Compound “GGKWSKRDWLKAFYDKVAEKLKEAF [GGKWSKR-Beltide-1]” registered a remaining acylation in data set [6] of approximately 64%.

On to “GGTYSDHDWLKAFYDKVAEKLKEAF [GGTYSDH-Beltide-1]”, for which the remaining acylation in [6] stood at 75%. Take GHHHHHHDWLKAFYDKVAEKLKEAF [PP1]: the remaining acylation in data set [6] was 27%. On to “Qbeta: Qbeta VLPs (SEQ ID NO: 86) produced in E. coli”, for which the “anti-RBD response (ELISA titers) after a single injection” value in data set [7] is “did not show a measurable response”. In the data set on Pseudovirus, the “% of neutralization at dilution 1:300” value was 17.24%.
